Assay results reported in US9402875B2, “Amidated dopamine neuron stimulating peptide restoration of mitochondrial activity” (University of Kentucky Research Foundation, priority 2006, dated 2016).
Ends that are not written are not given here.

Key:
[1] = tested on: mitochondrial-associated genes in the substantia nigra; assay: Gene array analysis (Affymetrix) of substantia nigra after DNSP-11; assay type: in vivo, rat; settings: 48 h after bilateral 30 μg
Method: Changes in expression of mitochondrial-associated genes in the substantia nigra (SN) of three young adult (5 month old) male F344 rats 48 hours following bilateral intranigral injections of DNSP-11 into the substantial nigra was assessed as follows.
A 3 μg/μl DNSP-11 peptide solution was prepared in citrate buffer and filter sterilized. Stereotaxic injections were made of 30 μg DNSP-11 in 10 ul citrate buffer into the substantia nigra on each side of the brain. Controls received […] injections of vehicle. Forty-eight hours later, the animals were euthanized, the brains quickly recovered and sectioned so that the bilateral SN could be dissected out as one block of tissue and snap frozen in liquid nitrogen. RNA was extracted from the SN samples for gene array analysis, which was conducted on Affymetrix Version II chips. A gene chip was run for each of the six rats: three bilateral vehicle recipients, three bilateral 30 μg DNSP-11 recipients.

[2] = tested on: normal young male Fischer 344 rats; assay: Striatal microdialysis 28 days after intranigral DNSP-11; assay type: in vivo, rat
Method: Infusion Delivery of DNSP-11 or Vehicle: Isoflurane anesthetized (1.5-2.5%) F344 rats received 5 μl of 6 μg/μL DNSP-11 solution or citrate buffer vehicle solution in a blinded manner. Treatment was delivered to the nigral cell bodies using the same stereotaxic coordinates and protocol for solution delivery as in studies of GDNF.
Reverse Microdialysis: Reverse in vivo microdialysis was accomplished using methods and brain coordinates described by Hebert et al. (1996)J Pharmacol. Exper. Ther. 279:1181-1190. CMA 11 microdialysis probes with a 4.0 mm membrane length and 6 kDa molecular weight cut-off were placed within the rat striatum.
Prior studies with GDNF have shown robust effects on both potassium and amphetamine-evoked release 28 days after a single injection into the rat substantia nigra (Hebert et al. (1997) J. Pharm. Exp. Thera. 282: 760) indicating the functional effects of this trophic factor on dopamine signaling in the normal rat striatum. In the present experiment, 30 μg of DNSP-11 was injected into the right substantia nigra of normal young male Fischer 344 rats. Twenty-eight days after injection, in vivo microdialysis was performed in these animals to investigate dopamine neurochemistry in the ipsilateral striatum. […] Winkler et al. (1996) J. Neurosci. 16: 7206; Hebert et al. (1996) J Pharmacol Exper Ther. 279: 1181-1190 (1996).

Erk1/2 = assay: ERK1/2 activation by western blot; assay type: cell-based; settings: DNSP-11 0.1 uM or 1 uM or GDNF 50 ng/ml for 20 minutes
Method: MN9D and B65 cell were cultured in DMEM; 11995 (containing pyridoxol HCl; Sigma, St. Louis, Mo.) supplemented with 10% fetal bovine serum (HyClone, Logan, Utah), 50 U/mL penicillin and streptomycin with DNSP-11 (0.1 uM or 1 uM) or GDNF (50 ng/ml) for 20 minutes. The cells were then solubilized in Triton-X-100/glycerol lysis buffer and subjected to electrophoresis and western blotting as partially described previously (Jiang et al., Mol Biol Cell 14:859-70 (2003)). To detect phosphorylated Erk (#4377 Cell Signaling) and ERK (#4696 Cell Signaling) by immunoblotting, the cells were directly lysed in the sample loading buffer. Secondary IRDye 700X and IRDye800 conjugated, fluorescent antibodies (Rockland Inc.) were used to detect signal with Odyssey v3.0 scanning software. Several blots were analyzed to determine the linear range of the fluorescence signals, and quantifications were performed using densitometry analysis.

MN9D cells = assay: TUNEL staining, mitochondrial toxins; assay type: cell-based
Method: MN9D cells and B65 cells were cultured in Dulbecco's Modified Eagle's Medium (DMEM; 11995 (containing pyridoxol HCl); Sigma, St. Louis, Mo.) supplemented with 10% fetal bovine serum (HyClone, Logan, Utah), 50 U/mL penicillin and streptomycin. For each assay the cells were treated with mitochondrial-specific environmental toxins, i.e., MPP+, rotenone, and/or TaClo, and with or without DNSP-11. After incubation with the toxins, the cells were plated on 24-well poly-D-lysine plates (50,000 cells/well) for TUNEL assay (as described below) or 100,000 cell/well for caspase-3 assay in DMEM medium with 1% (v/v) penicillin-streptomycin only (as described below).
Terminal deoxynucleotidyl transferase mediated X-dUTP nicked end DNA labeling of cells (TUNEL staining) was used to assess cells undergoing apoptosis. […] The biotinylated nucleotides are detected by using streptavidin-horseradish peroxidase conjugate followed by the substrate, diaminobenzidine (DAB). […] Cell were counted with 20× magnification (4 random fields/well), 4 wells per group. Ratio between apoptotic cells and total cells was calculated. […]

[3] = ipsilateral striatum, 28 days after 30 μg into right substantia nigra

PPEAPAEDRSL-NH2 [DNSP-11, PPEAPAEDRSL-amide]
APP FOLD CHANGE ([1]; vs control): −1.08 | BACEI FOLD CHANGE ([1]; vs control): −1.09 | CASP3 FOLD CHANGE ([1]; vs control): 1.18 | CASP8 FOLD CHANGE ([1]; vs control): 1.25 | CAT FOLD CHANGE ([1]; vs control): 1.09 | COX6A2 FOLD CHANGE ([1]; vs control): 1.75 | COX6B1 FOLD CHANGE ([1]; vs control): 1.04 | COX17 FOLD CHANGE ([1]; vs control): 1.11 | GLRX2 FOLD CHANGE ([1]; vs control): 1.09 | GPX7 FOLD CHANGE ([1]; vs control): 1.19 | MAOB FOLD CHANGE ([1]; vs control): 1.13 | MAP2K4 FOLD CHANGE ([1]; vs control): −1.12 | MAPK9 FOLD CHANGE ([1]; vs control): −1.21 | MAPK10 FOLD CHANGE ([1]; vs control): −1.08 | NDUFA7 FOLD CHANGE ([1]; vs control): 1.07 | PARK7 FOLD CHANGE ([1]; vs control): 1.02 | PRDX5 FOLD CHANGE ([1]; vs control): 1.13 | PSEN1 FOLD CHANGE ([1]; vs control): 1.16 | TXN2 FOLD CHANGE ([1]; vs control): 1.10 | CAT catalase expression level, PEPTIDE ([1]; P 0.015): 2828.2 | CASP8 caspase 8 expression level, PEPTIDE ([1]; control 178.1, P 0.006): 219.4 | GPX7 glutathione peroxidase 7 expression level, PEPTIDE ([1]; control 183.8, P 0.015): 194.2 | CASP3 caspase 3 expression level, PEPTIDE ([1]; control 367.5, P 0.024): 421.4 | BACEI beta-site APP-cleaving enzyme 1 expression level, PEPTIDE ([1]; control 510.6, P 0.016): 451.6 | COX6A2 cytochrome c oxidase subunit Via polypeptide2 expression level, PEPTIDE ([1]; control 520.6, P 0.014): 814.1 | MAPK10 mitogen-activated protein kinase 10 expression level, PEPTIDE ([1]; control 552.8, P 0.008): 505.0 | PSEN1 presenilin 1 expression level, PEPTIDE ([1]; control 563.2, P 0.022): 673.5 | MAPK9 mitogen-activated protein kinase 9 expression level, PEPTIDE ([1]; control 930.0, P 0.007): 770.7 | TXN2 thioredoxin 2 expression level, PEPTIDE ([1]; control 1378.5, P 0.010): 1511.9 | MAOB monoamine oxidase B expression level, PEPTIDE ([1]; control 1974.2, P 0.012): 2199.8 | COX17 cytochrome c oxidase assembly homolog expression level, PEPTIDE ([1]; control 2017.8, P 0.025): 2326.1 | MAP2K4 mitogen-activated protein kinase kinase 4 expression level, PEPTIDE ([1]; control 2744.4, P 0.043): 2422.4 | NDUFA7 NADH dehydrogenase (ubiquinone) 1 alpha subcomplex, 7 expression level, PEPTIDE ([1]; control 2943.0, P 0.046): 3125.4 | GLRX2 glutaredoxin 2 expression level, PEPTIDE ([1]; control 3472.2, P <0.001): 3618.7 | PRDX5 peroxiredoxin 5 expression level, PEPTIDE ([1]; control 4790.1, P 0.020): 5569.8 | PARK7 DJ-1 expression level, PEPTIDE ([1]; control 5159.4, P 0.032): 5299.2 | COX6B1 cytochrome c oxidase subunit Vib polypeptide 1 expression level, PEPTIDE ([1]; control 7536.6, P 0.044): 7869.7 | APP amyloid beta (A4) precursor protein expression level, PEPTIDE ([1]; control 10117.2, P 0.006): 9734.4 | Basal DA ([2]; 28 days after delivery, vehicle 26.0±2.7 nM): 45.8 ± 7.7 nM | Basal concentrations of HVA ([2]; 28 days after delivery, vehicle 2419±251 nM): 4.516 ± 0.502 µM | Basal concentrations of DOPAC ([2]; 28 days after delivery, vehicle 3355±338 nM): 6.544 ± 0.836 µM | resting levels of HVA, increase vs controls [2, 3]: over 100% | resting levels of dopamine, increase vs controls [2, 3]: over 100% | phosphorylation of Erk1/2 (ratio of phosphorylated to non-phosphorylated) (Erk1/2; B65 cells): increases significantly | phosphorylation of Erk1/2 (ratio of phosphorylated to non-phosphorylated) (Erk1/2; MN9D cells): increases significantly | TUNEL staining, protection from toxins (MN9D cells; MPP+, rotenone or TaClo 1 to 12 hours, pretreatment with 10 nM or 100 nM DNSP-11): significant protection | TUNEL staining, DNSP-11 alone (MN9D cells; no toxin): no significant effect
